Data set [1] concerns the target mushroom tyrosinase. The data set is described as follows: Mushroom tyrosinase inhibitory assay (L-tyrosine or L-DOPA as substrate). In kind it is biochemical. Particulars: for IC50: mean ± SEM of triplicate experiments; for tyrosinase inhibitory activity toward L-DOPA (in words): at any of the tested concentrations. How it is done: The reaction mixtures were keep warm at 37 °C for 20 min. The absorbance of the mixture at 492 nm was measured using a microplate reader. The tyrosinase inhibitory activity (%) was calculated as (1 − Abssample/Abscontrol) × 100%.

The test system of data set [2] is intracellular tyrosinase in B16F10 melanoma cells. The data set is described as follows: Cellular tyrosinase activity assay in α-MSH and IBMX-induced B16F10 melanoma cells (L-DOPA oxidation). Particulars: α-MSH (5 μM) and IBMX (200 μM), 48 h, α-MSH and IBMX alone 310.39%. In kind it is cell-based, murine. How it is done:
(§1) Murine melanoma B16F10 cells were purchased from the Korean Cell Line Bank (Seoul, Korea). The cells were cultured in DMEM containing 10% FBS and 1% streptomycin, and then incubated at 37 °C with 5% CO2. The melanoma cells were plated at 95% confluency for all the experiments.
Intracellular tyrosinase inhibitory activity assay was achieved by measuring the rate of oxidation of L-DOPA [44]. Cells at a density of 1 × 10^5 cells/well were plated in 6-well plates (Nunc, Denmark) and incubated overnight. […] The cells were washed with PBS and lysed in a solution containing 100 µL of 50 mM phosphate buffer (pH 6.5), 0.1 mM phenylmethylsulfonylfluoride (PMSF), and 1% Triton X-100. The cells lysates were employed in a deep freezer (−80 °C) for 1 h. After defrosting the cell lysates, the cellular extracts were purified by centrifugation at 12,000 rpm for 30 min at 4 °C. A total of 80 µL of supernatant and 20 µL of L-DOPA (2 mg/mL) were added to a 96-well plate, and the absorbance at a wavelength of 492 nm was measured every 10 min during 1 h using an ELISA plate reader (TECAN, Salzburg, Austria). Total protein content was determined using BCA protein assay reagent (Thermo Scientific, Rockford, IL, USA).

The test system of data set [3] is B16F10 melanoma cells. The data set is described as follows: Melanin contents in α-MSH and IBMX-induced B16F10 melanoma cells. Format: cell-based, murine. The following applies: α-MSH (5 μM) and IBMX (200 μM), 48 h, α-MSH and IBMX alone 171.30%. How it is done:
as §1
Cellular melanin content was determined as described previously. Cells were seeded in six-well culture plates (Nunc, Denmark) at 2 × 10^5 cells/well for 24 h. […] Cells were washed twice with PBS. After centrifugation, cell pellets were disrupted in 100 μL of 1N NaOH, and incubated at 60 °C for 1 h and mixed to solubilize the melanin. Absorbance at 405 nm was compared with a standard curve for synthetic melanin (TECAN, Salzburg, Austria).

The subject of data set [4] is B16F10 melanoma cells. The data set is described as follows: Cell viability, EZ-Cytox assay. In kind it is cell-based, murine. The following applies: concentrations up to 100 μM, 48 h. As for the experimental part:
as §1
Cell viability was assessed with the EZ-Cytox assay kit (Daeillab Service, Seoul, Korea) as previously described. In brief, B16F10 cells were seeded in 96-well plates (Corning, NY, USA) at a density of 1 × 10^4 cells/well for 24 h. The cells were fed fresh, serum-free DMEM that contained different concentrations (up to 100 μM) of 1c, and incubated for 24 h or 48 h. Then, 10 μL EZ-Cytox solution was added to each well and the cells were incubated for 2–4 h. The absorbance of cells in the absence of treatment was regarded as 100% cell survival. […] Thus, CC50 value of 1c were calculated by regression analysis.

Data set [5] addresses mushroom tyrosinase. In words: Enzyme kinetic analysis in mushroom tyrosinase inhibition (Lineweaver-Burk and Dixon plots). In kind it is biochemical. Particulars: for Ki: Dixon plot; for Inhibition type: Lineweaver-Burk plot. How it is done: In order to estimate the kinetic mechanism, two kinetic methods using Lineweaver-Burk and Dixon plots were used. Using Lineweaver-Burk double reciprocal plots [a plot of 1/enzyme velocity (1/V) vs. 1/substrate concentration (1/[S])], the type of inhibition was determined using various concentrations of L-tyrosine (0.5, 1 and 2 mM) and L-DOPA (0.5, 1, and 2 mM), as substrates, in the absence and presence of various concentrations of 1c (3.2–80 nM; for L-tyrosine, 0.4–10 μM; for L-DOPA). […] The concentrations of 1c were as follows: 3.2–80 nM; for L-tyrosine, 0.4–10 μM; for L-DOPA. The enzymatic procedures comprised of the formerly described tyrosinase test methods. The inhibition constant (Ki) was resolute using Dixon plots.

[6] abbreviates: substrate L-DOPA, read-out: IC50 (μM), L-DOPA as substrate (diphenolase / dopa oxidase).
[7] abbreviates: substrate L-tyrosine, read-out: IC50 (μM), L-tyrosine as substrate (monophenolase / tyrosine hydroxylase).

Like-named read-outs stand apart in the source and are kept apart here.

As for `O=C(/C=C/c1ccc(O)cc1)c1cccs1` [1a, (E)-3-(4-Hydroxyphenyl)-1-(thiophen-2-yl)prop-2-en-1-one], the IC50 at mushroom tyrosinase [1] (setting [6]) came out at 60.1 ± 7.85 µM; on mushroom tyrosinase [1] (setting [7]) it was 46.2 ± 0.55 µM.

Molecule `O=C(/C=C/c1ccc(O)c(O)c1)c1cccs1` [1b, (E)-3-(3,4-Dihydroxyphenyl)-1-(thiophen-2-yl)prop-2-en-1-one] gave a melting point of 182.5 to 185.7 °C. At mushroom tyrosinase [1] (setting [6]), the IC50 was 103 ± 8.47 µM. Further, on mushroom tyrosinase [1] (setting [7]), the IC50 turned out to be 75.7 ± 2.46 µM.

As for `O=C(/C=C/c1ccc(O)cc1O)c1cccs1` [1c, (E)-3-(2,4-Dihydroxyphenyl)-1-(thiophen-2-yl)prop-2-en-1-one], the intracellular tyrosinase activity is 225.78% in data set [2] (0.04 μM), 157.79% in data set [2] (0.2 μM) and 132.71% in data set [2] (1 μM). In addition, the melanin contents with B16F10 melanoma cells [3] (0.04 μM) was 107.29%; in the data set on B16F10 melanoma cells [3] (0.2 μM), 98.15%; with B16F10 melanoma cells [3] (1 μM), 88.09%. Moreover, the “cytotoxicity (cell viability)” value in the data set on B16F10 melanoma cells [4] is recorded as “did not show any cytotoxicity”. For the same molecule, the Ki was 1.76 µM on mushroom tyrosinase [5] (substrate L-DOPA) and 0.00501 µM on mushroom tyrosinase [5] (substrate L-tyrosine). For the same molecule, the Inhibition type result in the data set with mushroom tyrosinase [5] (substrate L-DOPA) and in the data set with mushroom tyrosinase [5] (substrate L-tyrosine) was “competitive inhibition” throughout. In addition, at mushroom tyrosinase [1] (setting [6]), the IC50 is 0.93 ± 0.22 µM.

Molecule `COc1cc(/C=C/C(=O)c2cccs2)ccc1O` [1d, (E)-3-(4-Hydroxy-3-methoxyphenyl)-1-(thiophen-2-yl)prop-2-en-1-one] showed a melting point of 132.8 to 135.2 °C. In the data set on mushroom tyrosinase [1] (substrate L-DOPA), the “tyrosinase inhibitory activity toward L-DOPA (in words)” value is given as “did not inhibit tyrosinase activity”. Besides, on mushroom tyrosinase [1] (setting [6]), the IC50 is greater than 200 µM. Moreover, the IC50 on mushroom tyrosinase [1] (setting [7]) amounted to 98.8 ± 2.11 µM.

As for `COc1ccc(/C=C/C(=O)c2cccs2)cc1O` [1e, (E)-3-(3-Hydroxy-4-methoxyphenyl)-1-(thiophen-2-yl)prop-2-en-1-one], the IC50 at mushroom tyrosinase [1] (setting [6]) is 28.7 ± 1.98 µM; on mushroom tyrosinase [1] (setting [7]), 17.4 ± 1.81 µM.

For `COc1cc(/C=C/C(=O)c2cccs2)cc(OC)c1O` [1f, (E)-3-(4-Hydroxy-3,5-dimethoxyphenyl)-1-(thiophen-2-yl)prop-2-en-1-one], the melting point fell in the range of 143.6 to 147.3 °C. In the data set on mushroom tyrosinase [1] (substrate L-DOPA), the “tyrosinase inhibitory activity toward L-DOPA (in words)” value is “did not inhibit tyrosinase activity”. Moreover, the IC50 on mushroom tyrosinase [1] (setting [6]) was greater than 200 µM. At mushroom tyrosinase [1] (setting [7]), the IC50 was determined as 77.9 ± 8.74 µM.

`O=C(/C=C/c1ccc(O)c(Br)c1)c1cccs1` [1g, (E)-3-(3-Bromo-4-hydroxyphenyl)-1-(thiophen-2-yl)prop-2-en-1-one] registered a melting point of 195.2 to 199.6 °C. Also, the IC50 on mushroom tyrosinase [1] (setting [6]) turned out to be 112 ± 14.3 µM. The “tyrosinase inhibitory activity toward L-tyrosine (in words)” value with mushroom tyrosinase [1] (substrate L-tyrosine) is “inactive”.

In the case of `O=C(/C=C/c1cc(Br)c(O)c(Br)c1)c1cccs1` [1h, (E)-3-(3,5-Dibromo-4-hydroxyphenyl)-1-(thiophen-2-yl)prop-2-en-1-one], the melting point lay in the range of 269.3 to 272 °C. The “tyrosinase inhibitory activity toward L-DOPA (in words)” value in the data set with mushroom tyrosinase [1] (substrate L-DOPA) is on record as “did not inhibit tyrosinase activity”. Further, the IC50 on mushroom tyrosinase [1] (setting [6]) was greater than 200 µM. For the same molecule, the “tyrosinase inhibitory activity toward L-tyrosine (in words)” value in the data set on mushroom tyrosinase [1] (substrate L-tyrosine) is “inactive”.

Regarding `O=c1cc(CO)occ1O` [Kojic acid, kojic acid, reference compound], in data set [2] (10 μM), the intracellular tyrosinase activity is on record as 225.54%. Also, in the data set with B16F10 melanoma cells [3] (10 μM), the melanin contents worked out at 118.19%.

For orientation: melting point means the temperature of the solid-liquid transition. Broadly, the Ki is a measure of affinity in units of concentration, obtained from inhibition or displacement.

These data come from article PMC6222382, “A Potent Tyrosinase Inhibitor, (E)-3-(2,4-Dihydroxyphenyl)-1-(thiophen-2-yl)prop-2-en-1-one, with Anti-Melanogenesis Properties in α-MSH and IBMX-Induced B16F10 Melanoma Cells” (Molecules : A Journal of Synthetic Chemistry and Natural …, 2018).
